Test results published in PubChem BioAssay (NCI).
Where “and” joins values, the source holds several entries; their conditions need not be identical. Identical values can stand only once.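 Assay format: 96-well plates, 48-hour exposure. GI50: concentration for 50% inhibition of growth. At the TGI there is no net growth.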

Experiments:
Test in all cases: growth of human tumour cells (NCI), 48 h
ACHN renal = test system: ACHN renal
HCC-2998 colon = test system: HCC-2998 colon
HOP-62 NSCLC = test system: HOP-62 NSCLC
M14 melanoma = test system: M14 melanoma
MOLT-4 leukemia = test system: MOLT-4 leukemia
OVCAR-5 ovarian = test system: OVCAR-5 ovarian
SF-539 CNS = test system: SF-539 CNS
UACC-257 melanoma = test system: UACC-257 melanoma
UACC-62 melanoma = test system: UACC-62 melanoma
MCF7 breast = test system: MCF7 breast

SMILES | TGI (ACHN renal) [µM] | TGI (HCC-2998 colon) [µM] | TGI (HOP-62 NSCLC) [µM] | TGI (M14 melanoma) [µM] | TGI (MOLT-4 leukemia) [µM] | TGI (OVCAR-5 ovarian) [µM] | TGI (SF-539 CNS) | TGI (UACC-257 melanoma) [µM] | TGI (UACC-62 melanoma) [µM] | GI50 (ACHN renal) [µM] | GI50 (HOP-62 NSCLC) [µM] | GI50 (M14 melanoma) [µM] | GI50 (MOLT-4 leukemia) [µM] | GI50 (OVCAR-5 ovarian) [µM] | GI50 (SF-539 CNS) [µM] | GI50 (UACC-257 melanoma) [µM] | GI50 (HCC-2998 colon) [µM] | GI50 (MCF7 breast) [µM] | TGI (MCF7 breast) [µM] | GI50 (UACC-62 melanoma) [µM]
CCCCCCCCCC1C(C)c2c([nH]c3ccccc23)C2C(=O)N(c3ccccc3)C(=O)C21 (centres undefined) | 22.8 | 25.7 | 31.2 | 28.7 | 9.44 | 31.5 | 40.6 µM | 29.3 | 33.1 |  |  |  |  |  |  |  |  |  |  | 
COc1cc2c(c(OC)c1OC)-c1ccc(SC)c(=O)cc1[C@@H](NCc1cccc(C#N)c1)CC2 | > 75 | 0.0515 | > 75 |  | 69.2 | > 75 | 0.0354 µM and < 0.0075 µM | > 75 | 0.0637 | 0.0134 | < 0.0075 | < 0.0075 | < 0.0075 | > 75 | < 0.0075 | 6.18 |  |  |  | 
O=C(NC(=S)NNC(=S)NNc1ccccc1)c1ccccc1 | > 100 | > 100 | > 100 | 55.6 | 49.9 | > 100 | 44.1 µM | > 100 |  | 10.1 | 4.7 | 7.45 | 4.81 | > 100 | 3.94 | 4.68 | 8.53 | 2.92 | > 100 | 
CCOC(=O)N1N=NC2C3OC(C[C@@]3(C#N)OC(C)=O)[C@H]21 (some centres undefined) | > 100 | > 100 | > 100 | > 100 | > 100 | > 100 | > 100 µM | > 100 | > 100 |  |  |  |  |  |  |  |  |  |  | 
CCC1(C(=O)OC)CCc2c(OC)ccc(OC)c2C1=O (centres undefined) | > 100 | > 100 | > 100 | > 100 | > 100 | > 100 | > 100 µM | > 100 | > 100 |  |  |  |  |  |  |  |  |  |  | 
O=C(O)C[O][Sb][O]CC(=O)O | > 100 |  | > 100 | > 100 | > 100 | > 100 |  |  | > 100 | > 100 | > 100 | > 100 | > 100 | > 100 |  |  |  |  |  | > 100
CC(=O)OCC1OC(n2c(=O)n(-c3ccccc3)c(=O)c3cc(Br)cc(Br)c32)C(OC(C)=O)C(OC(C)=O)C1OC(C)=O (centres undefined) | > 100 | > 100 | > 100 | > 100 | > 100 | > 100 | > 100 µM | > 100 | > 100 |  |  |  |  |  |  |  |  |  |  | 
CCN(CC)CCCOc1cc(O)c2c(=O)cc(-c3ccccc3)oc2c1 | 19 | 24.4 | 19.4 |  | 8.71 | 25.7 | 19.5 µM | 12.5 | 12.7 | 6.16 | 5.29 |  | 3.29 | 13 | 6.65 | 3.4 | 10.1 | 4.16 | 16.2 | 3.89
CC1=CC2=C(C(N)=O)C(=O)OC2(C)C(c2ccccc2)C1 (centres undefined) | > 100 |  | > 100 | > 100 | > 100 | > 100 | > 100 µM | > 100 | > 100 |  |  |  |  |  |  |  |  |  | > 100 | 
Cc1c(C(=O)/C=C/c2ccccc2Cl)[n+](=O)c2ccccc2n1[O-] | 31.9 |  | 34.2 | 29 | 42 | 35.7 | 29.4 µM | 27.2 |  |  |  |  |  |  |  |  |  |  |  | 
COc1cc(C(=O)C/C(CCC(=O)Nc2ccc(Cl)cc2Cl)=N/NC(=O)C(N)=O)ccc1O | > 100 | > 100 | > 100 | > 100 | > 100 | > 100 | > 100 µM | > 100 | > 100 |  |  |  |  |  |  |  |  |  |  | 
CC(=O)Nc1ccccc1-c1cnc2ccccc2n1 | > 100 | > 100 | > 100 | > 100 | > 100 | > 100 | > 100 µM | > 100 | > 100 |  |  |  |  |  |  |  |  |  |  | 
CC(C)(C)OC(=O)NC1CCC[C@H]1O (some centres undefined) | > 100 | > 100 | > 100 | > 100 | > 100 | > 100 | > 100 µM | > 100 | > 100 |  |  |  |  |  |  |  |  |  |  | 
Nc1ccc2c(c1)CC1c3ccccc3C(C2)c2ccccc21 | > 100 | > 100 | > 100 | > 100 | > 100 | > 100 | > 100 µM | > 100 | > 100 |  |  |  |  |  |  |  |  |  |  | 
O=C(O)CCCCCO | > 100 | > 100 | > 100 | > 100 | > 100 | > 100 | > 100 µM | > 100 | > 100 |  |  |  |  |  |  |  |  |  |  | 
CCOC(=O)C(Cc1ccccc1)NC(=O)OC(C)(C)C (centres undefined) | > 100 | > 100 | > 100 | > 100 | > 100 | > 100 | > 100 µM | > 100 | > 100 |  |  |  |  |  |  |  |  |  |  | 
COc1cc2ccnc3c2c(c1OC)-c1ccc(=O)ccc1-3 | 44.6 | > 100 | > 100 |  | 18.7 | > 100 | 77.3 µM | 63.5 | 34 | 19.3 | 32.5 |  | 3.6 | 51.7 | 15.9 | 25.4 | 32.1 | 14.9 | > 100 | 14.6
CO/N=C(/COc1c(-c2ccccc2)oc2ccccc2c1=O)c1ccc(OC)cc1 | > 100 | > 100 | > 100 | > 100 |  | > 100 | > 100 µM | > 100 | > 100 | > 100 | > 100 | > 100 |  | > 100 | > 100 | > 100 | > 100 |  |  | 53.5
CCc1ccc(Nc2cc(=O)[nH]c(=S)n2C)cc1 |  |  | > 100 | > 100 | > 100 | > 100 | > 100 µM | > 100 | > 100 |  |  |  |  |  |  |  |  |  |  | 
O=C(/C=C/c1ccccc1O)c1cccnc1 | > 100 | > 100 | > 100 | > 100 | > 100 | > 100 | > 100 µM | > 100 | > 100 |  |  |  |  |  |  |  |  |  |  | 
